Reference: patent publication US7112565B2, “Stabilized pharmaceutical composition in lyophilized form” (Astellas Pharma Inc., priority 1999, dated 2006)

Tests used:
Type in all cases: physicochemical
[1] = Test Example 1: effect of stabilizer on stability of lyophilized compositions of Compound (II)
Method: Effect of Stabilizer in Stabilizing Lyophilized Compositions of Compound (II)
(§1) 10 mg of Compound (II) and, as a stabilizer, 100 mg of lactose or 9 mg of sodium chloride were dissolved completely in 1 ml of water. The resulting solutions were lyophilized and maintained at 70° C. in glass vials. Nine days after, the resulting compositions were tested on their appearance, the residual amount of Compound (II), and others. As a control, used was a solution of Compound (II) without any stabilizers.

[2] = Test Example 3: dependence of stability on the amount of lactose added
Method: as §1
Dependence of the Stability of Lyophilized Compositions of Compound (II) upon the Amount of Lactose Added
Tests were carried out in the same manner as in Test example 1 except that 20 mg, 50 mg, 100 mg or 200 mg of lactose were added as a stabilizer. […] Incidentally, it took 15 seconds to reconstitute the compositions in 1 ml of water.

[3] = Test Example 6: dependence of stability on the pH of the solution before lyophilizing; settings: for Residual amount / Water content / pH of reconstituted solution in 5 ml of purified water: 10 mg Compound (II) + 100 mg lactose
Method: Dependence of the Stability of Lyophilized Compositions of Compound (II) upon the pH Value of the Solution of the Composition before Lyophilizing
10 mg of Compound (II) and, as a stabilizer, 100 mg of lactose were dissolved completely in 1 ml of citrate-NaOH buffer having different pH value between pH 4.0 to 7.0. The resulting solutions having different pH values were lyophilized and maintained at 70° C. in glass vials. Nine days after, the resulting compositions were tested on their pH and the residual amount of Compound (II).

[4] = Test Example 4: stability of lyophilized compositions of 200 mg of lactose and Compound (II) in vial
[5] = 10 mg Compound (II) + lactose (100 mg), 0 hours
[6] = 10 mg Compound (II) + lactose (100 mg), after 9 days at 70° C.
[7] = 10 mg Compound (II) + sodium chloride (9 mg), 0 hours
[8] = 10 mg Compound (II) + sodium chloride (9 mg), after 9 days at 70° C.
[9] = 10 mg Compound (II), control: nil stabilizer, 0 hours
[10] = 10 mg Compound (II), control: nil stabilizer, after 9 days at 70° C.
[11] = 10 mg Compound (II) + 20 mg lactose, 0 hours
[12] = 10 mg Compound (II) + 20 mg lactose, after 3 months at 40° C. and 75% humidity
[13] = 10 mg Compound (II) + 20 mg lactose, after 9 days at 70° C.
[14] = 10 mg Compound (II) + 50 mg lactose, 0 hours
[15] = 10 mg Compound (II) + 50 mg lactose, after 3 months at 40° C. and 75% humidity
[16] = 10 mg Compound (II) + 50 mg lactose, after 9 days at 70° C.
[17] = 10 mg Compound (II) + 100 mg lactose, 0 hours
[18] = 10 mg Compound (II) + 100 mg lactose, after 3 months at 40° C. and 75% humidity
[19] = 10 mg Compound (II) + 100 mg lactose, after 9 days at 70° C.
[20] = 10 mg Compound (II) + 200 mg lactose, 0 hours
[21] = 10 mg Compound (II) + 200 mg lactose, after 3 months at 40° C. and 75% humidity
[22] = 10 mg Compound (II) + 200 mg lactose, after 9 days at 70° C.
[23] = solution pH 4.0 before lyophilizing, 0 hours
[24] = solution pH 4.0 before lyophilizing, 9 days at 70° C.
[25] = solution pH 4.5 before lyophilizing, 0 hours
[26] = solution pH 4.5 before lyophilizing, 9 days at 70° C.
[27] = solution pH 5.0 before lyophilizing, 0 hours
[28] = solution pH 5.0 before lyophilizing, 9 days at 70° C.
[29] = solution pH 5.5 before lyophilizing, 0 hours
[30] = solution pH 5.5 before lyophilizing, 9 days at 70° C.
[31] = solution pH 6.0 before lyophilizing, 0 hours
[32] = solution pH 6.0 before lyophilizing, 9 days at 70° C.
[33] = solution pH 6.5 before lyophilizing, 0 hours
[34] = solution pH 6.5 before lyophilizing, 9 days at 70° C.
[35] = solution pH 7.0 before lyophilizing, 0 hours
[36] = solution pH 7.0 before lyophilizing, 9 days at 70° C.
[37] = 25 mg Compound (II) + 200 mg lactose, after 3 months at 40° C. and 75% humidity

Compound: CCCCCOc1ccc(-c2cc(-c3ccc(C(=O)NC4CC(O)C(O)NC(=O)C5C(O)C(C)CN5C(=O)C(C(O)CC(N)=O)NC(=O)C(C(O)C(O)c5ccc(O)c(OS(=O)(=O)[O-])c5)NC(=O)C5CC(O)CN5C(=O)C(C(C)O)NC4=O)cc3)no2)cc1.[Na+] (stereo not shown) [Compound (II)]
- Appearance [1, 5]: White mass
- Residual amount [1, 5]: 100.0%
- Water content [1, 5]: 1.0%
- pH of reconstituted solution in 1 ml of water [1, 5]: 6.4
- Appearance [1, 6]: White mass
- Residual amount [1, 6]: 99.5%
- pH of reconstituted solution in 1 ml of water [1, 6]: 6.1
- Appearance [1, 7]: White mass
- Residual amount [1, 7]: 100.0%
- Water content [1, 7]: 0.7%
- pH of reconstituted solution in 1 ml of water [1, 7]: 6.7
- Appearance [1, 8]: White mass
- Residual amount [1, 8]: 75.9%
- pH of reconstituted solution in 1 ml of water [1, 8]: 6.3
- Appearance [1, 9]: White mass
- Residual amount [1, 9]: 100.0%
- Water content [1, 9]: 1.3%
- pH of reconstituted solution in 1 ml of water [1, 9]: 7.1
- Appearance [1, 10]: Slightly yellow mass
- Residual amount [1, 10]: 8.0%
- pH of reconstituted solution in 1 ml of water [1, 10]: 2.7
- Stability of lyophilized composition (conclusion from Tables 1 and 2) ([1]; with lactose, sodium chloride, maltose or sucrose, compared with no stabilizer or other stabilizers): significantly stable
- Clarity of reconstituted solution in 1 ml of water [2, 11]: Clear
- Color of reconstituted solution in 1 ml of water [2, 11]: Colorless
- Residual amount [2, 11]: 100.0%
- Total impurities [2, 11]: 3.44%
- Water content [2, 11]: 1.2%
- pH of reconstituted solution in 1 ml of water [2, 11]: 6.09
- Clarity of reconstituted solution in 1 ml of water [2, 12]: Clear
- Color of reconstituted solution in 1 ml of water [2, 12]: Colorless
- Residual amount [2, 12]: 100.0%
- Total impurities [2, 12]: 3.99%
- pH of reconstituted solution in 1 ml of water [2, 12]: 6.57
- Clarity of reconstituted solution in 1 ml of water [2, 13]: Not clear
- Color of reconstituted solution in 1 ml of water [2, 13]: White
- Residual amount [2, 13]: 88.09%
- Total impurities [2, 13]: 12.3%
- pH of reconstituted solution in 1 ml of water [2, 13]: 3.03
- Clarity of reconstituted solution in 1 ml of water [2, 14]: Clear
- Color of reconstituted solution in 1 ml of water [2, 14]: Colorless
- Residual amount [2, 14]: 100.0%
- Total impurities [2, 14]: 3.32%
- Water content [2, 14]: 0.5%
- pH of reconstituted solution in 1 ml of water [2, 14]: 6.57
- Appearance [2, 15]: White mass
- Clarity of reconstituted solution in 1 ml of water [2, 15]: Clear
- Color of reconstituted solution in 1 ml of water [2, 15]: Colorless
- Residual amount [2, 15]: 99.8%
- Total impurities [2, 15]: 4.21%
- Clarity of reconstituted solution in 1 ml of water [2, 16]: Clear
- Color of reconstituted solution in 1 ml of water [2, 16]: Colorless
- Residual amount [2, 16]: 96.7%
- Total impurities [2, 16]: 7.37%
- pH of reconstituted solution in 1 ml of water [2, 16]: 5.56
- Clarity of reconstituted solution in 1 ml of water [2, 17]: Clear
- Color of reconstituted solution in 1 ml of water [2, 17]: Colorless
- Residual amount [2, 17]: 100.0%
- Total impurities [2, 17]: 3.43%
- Water content [2, 17]: 0.3%
- pH of reconstituted solution in 1 ml of water [2, 17]: 6.58
- Appearance [2, 18]: White mass
- Color of reconstituted solution in 1 ml of water [2, 18]: Colorless
- Residual amount [2, 18]: 99.6%
- Total impurities [2, 18]: 3.96%
- pH of reconstituted solution in 1 ml of water [2, 18]: 5.80
- Clarity of reconstituted solution in 1 ml of water [2, 19]: Clear
- Color of reconstituted solution in 1 ml of water [2, 19]: Colorless
- Residual amount [2, 19]: 96.7%
- Total impurities [2, 19]: 7.08%
- pH of reconstituted solution in 1 ml of water [2, 19]: 6.08
- Clarity of reconstituted solution in 1 ml of water [2, 20]: Clear
- Color of reconstituted solution in 1 ml of water [2, 20]: Colorless
- Residual amount [2, 20]: 100.0%
- Total impurities [2, 20]: 3.40%
- Water content [2, 20]: 0.3%
- pH of reconstituted solution in 1 ml of water [2, 20]: 6.78
- Appearance [2, 21]: White mass
- Clarity of reconstituted solution in 1 ml of water [2, 21]: Clear
- Color of reconstituted solution in 1 ml of water [2, 21]: Colorless
- Residual amount [2, 21]: 99.6%
- Total impurities [2, 21]: 4.35%
- pH of reconstituted solution in 1 ml of water [2, 21]: 5.36
- Clarity of reconstituted solution in 1 ml of water [2, 22]: Clear
- Color of reconstituted solution in 1 ml of water [2, 22]: Colorless
- Residual amount [2, 22]: 96.1%
- Total impurities [2, 22]: 7.30%
- pH of reconstituted solution in 1 ml of water [2, 22]: 5.70
- Time to reconstitute the compositions in 1 ml of water ([2]; 10 mg Compound (II) + 20, 50, 100 or 200 mg lactose): 15 s
- Stability of lyophilized compositions (conclusion from Table 3) ([2]; 10 mg of Compound (II) and various amount of lactose): no problem in their stability
- Residual amount ([3]; all solution pH values 4.0 to 7.0, 0 hours): 100%
- Water content [3, 23]: 0.2%
- pH of reconstituted solution in 5 ml of purified water [3, 23]: 3.9
- Residual amount [3, 24]: 94.4%
- pH of reconstituted solution in 5 ml of purified water [3, 24]: 4.0
- Water content [3, 25]: 0.2%
- pH of reconstituted solution in 5 ml of purified water [3, 25]: 4.4
- Residual amount [3, 26]: 95.9%
- pH of reconstituted solution in 5 ml of purified water [3, 26]: 4.5
- Water content [3, 27]: 0.3%
- pH of reconstituted solution in 5 ml of purified water [3, 27]: 4.8
- Residual amount [3, 28]: 97.4%
- pH of reconstituted solution in 5 ml of purified water [3, 28]: 4.9
- Water content [3, 29]: 0.3%
- pH of reconstituted solution in 5 ml of purified water [3, 29]: 5.4
- Residual amount [3, 30]: 98.5%
- pH of reconstituted solution in 5 ml of purified water [3, 30]: 5.4
- Water content [3, 31]: 0.3%
- pH of reconstituted solution in 5 ml of purified water [3, 31]: 5.8
- Residual amount [3, 32]: 97.7%
- pH of reconstituted solution in 5 ml of purified water [3, 32]: 5.8
- Water content [3, 33]: 0.4%
- pH of reconstituted solution in 5 ml of purified water [3, 33]: 6.4
- Residual amount [3, 34]: 96.9%
- pH of reconstituted solution in 5 ml of purified water [3, 34]: 6.4
- Water content [3, 35]: 0.3%
- pH of reconstituted solution in 5 ml of purified water [3, 35]: 6.8
- Residual amount [3, 36]: 95.8%
- pH of reconstituted solution in 5 ml of purified water [3, 36]: 6.8
- Stability of composition (conclusion from Table 5) ([3]; after lyophilizing the solution at pH 4.0 to 7.0 at least, preferably pH 4.5 to 7.0): stable
- Residual amount [4, 37]: 101.2%
- pH of reconstituted solution in 5 ml of purified water [4, 37]: 6.14
- Total impurities ([4]; 50 mg Compound (II) + 200 mg lactose, after 21 days at 60° C.): 3.68%
- Residual amount ([4]; 75 mg Compound (II) + 200 mg lactose, after 21 days at 60° C.): 97.7%
- pH of reconstituted solution in 5 ml of purified water ([4]; 100 mg Compound (II) + 200 mg lactose, after 3 months at 40° C. and 75% humidity): 5.85
